Read-outs that look alike come from different tables or passages of the source.
Legend:
Type in all cases: cell-based
[1] = system: HEC59; assay: CellTiter-GLO (CTG) assay, combinatorial matrix; conditions: 30 μM to 15 nM IMT + 30 μM to 40 nM BAY-876
[2] = system: A2780; assay: CellTiter-GLO (CTG) assay, combinatorial matrix
Experimental: (§1) To determine the in vitro cellular viability, cellular ATP concentrations were measured using a luminescence-based homogenous assay format, as described here. […] Optimal cell density for each cell line was determined to guarantee linearity. For viability assays with compounds, cells were then seeded at a density of 200 to 1000 per well in 25 μl in 384-well plates (Greiner Bio-One, Frickenhausen, Germany). After overnight incubation at 37° C./5% CO2, 25 nl or 75 nl compounds were added to each sample well by using BIOMEK FXP Laboratory Automation Workstation (Beckman Coulter, USA). Wells with cells and 0.1% or 0.3% DMSO in culture medium were used as positive controls, wells with cells and 10 μM staurosporine (Selleck Chemicals, Huston, USA) in culture medium were used as negative controls. Upon incubation with compounds for 72 h at 37° C./5% CO2 25 μl Cell Titer Glo reagent (Promega, Madison, USA, European Pat. No. 1131441, U.S. Pat. Nos. 7,083,911, 7,452,663 and 7,732,128) 1:2 diluted with cell culture medium) was added to each well to determine cell viability. 384well-plates were placed for 2 min on an orbital microplate shaker and incubated for further 10 min at room temperature resulting in a stabilization of light signal. Luminescence was measured by Envision Plate Reader (Perkin Elmer, USA).
(§2) All in vitro cell culture experiments were carried out under near physiological glucose concentrations (5 mM) in at least two independent replicates.

[3] = system: A2780; assay: SRB assay, IMT combined with inhibitor; conditions: A2780; dilution series of the IMT + MEK inhibitor Selumetinib (AZD6244) at constant 1 μM or 31 nM; compared to untreated or MEK inhibitor only (FIG. 1)
Experimental: In two studies, the ovarian cell line A2780 was tested for 72 hours with the IMT N,N-dimethyl-2-[4-(o-tolyl)-2-oxo-chromen-7-yl]oxy-propanamide (30 μM-15 nM) and the MEK inhibitor Selumetinib (30 μM-10 nM), or with the IMT 1-[2-[4-(2-chlorophenyl)-2-oxo-chromen-7-yl]oxypropanoyl]piperidine-3-sulfonamide (30 μM-15 nM) and the MEK inhibitor PD318088 (30 μM-10 nM).
Solforhodamine B assay is carried out as described in Voigt W. (2005) Sulforhodamine B Assay and Chemosensitivity. (Methods in Molecular Medicine™, vol 110. Humana Press. https://doi.org/10.1385/1-59259-869-2:039).
The determination of changes in cellular biomass was based on the Solforhodamine B assay format, carried out as described in Voigt W. (2005) Sulforhodamine B Assay and Chemosensitivity. (Methods in Molecular Medicine™, vol 110. Humana Press. https://doi.org/10.1385/1-59259-869-2:039).
as §2
First, 30 different cell lines from 14 different tissue types were tested in the SRB assay format. The cells were examined individually for changes in growth over a period of 120 hours with dilution series of both inhibitors. Untreated cells were used as a negative control group. Subsequently, a dilution series of the respective MAPK signalling pathway SOCs was treated in combination with a fixed concentration of 40 nM (3S)-1-[(2R)-2-[4-(2-chloro-4-fluoro-phenyl)-2-oxo-chromen-7-yl]oxypropanoyl]piperidine-3-carboxylic acid.

[4] = system: HEC59; assay: CellTiter-GLO (CTG) assay, combinatorial matrix; conditions: HEC59, 72 hours, IMT at the μM of c0, untreated control =100%, read-out: Measured residual activity (cellular ATP content)
Experimental: as §1, §2
(§3) To establish the method described, N,N-dimethyl-2-[4-(o-tolyl)-2-oxo-chromen-7-yl]oxy-propanamide, (3S)-1-[2-[4-(2-chloro-4-fluoro-phenyl)-2-oxo-chromen-7-yl]oxypropanoyl]piperidine-3-carboxylic acid, (3S)-1-[(2R)-2-[4-(2-chloro-4-fluoro-phenyl)-2-oxo-chromen-7-yl]oxypropanoyl]piperidine-3-carboxylic acid and BAY-876 were first examined with regard to their effect on the cell growth of twelve different tumour cell lines and the IC50 values were determined. This initial study was followed by validation experiments in a matrix format and in the CTG assay, as described under Example 1), in two tumour cell lines from uterine and ovarian carcinoma (HEC59 and A2780), as well as in primary human blood cells (PBMC) (Table 7).
(§4) Combinations of one concentration of IMT (μM; y-axis) and 30 μM-33 nM BAY-876 (x-axis) were incubated for 72 hours with HEC59, hPBMCs or A2780 and then the cellular ATP-content was determined using the CellTiter-GLO assay format. A: Measured residual activity (%) based on an untreated control group (=100%). B: The combinatorial indices are provided, based on the reference groups treated with the corresponding concentration of only one inhibitor class, according to Berenbaum and Cou & Talalay. <1=synergism, 1-2=additivity, 2>=antagonism.

[5] = system: primary human blood cells (PBMC); assay: CellTiter-GLO (CTG) assay, combinatorial matrix; conditions: Homo sapiens, PBMC, hPBMCs, 72 hours, IMT at the μM of c0, untreated control =100%, read-out: Measured residual activity (cellular ATP content)
Experimental: as §1, §2, §3, §4

`CC(Oc1ccc2c(-c3ccc(F)cc3Cl)cc(=O)oc2c1)C(=O)N1CCC[C@H](C(=O)O)C1` (stereo partly drawn) [(3S)-1-[2-[4-(2-chloro-4-fluoro-phenyl)-2-oxo-chromen-7-yl]oxypropanoyl]piperidine-3-carboxylic acid] was tested, and the “combination of IMT and GLUTi compared to treatment with only the GLUTi BAY-876 alone” value [1] was “advantage of the combination”, the “combination of IMT and GLUTi compared to treatment with only the GLUTi BAY-876 alone” value ([2]; A2780, CTG matrix, 30 μM to 15 nM IMT + 30 μM to 40 nM BAY-876) was “advantage of the combination” and the “growth kinetics in the SRB assay format” value [3] was “advantage of the combination treatment”.

`Cc1c(NC(=O)c2cc(C(N)=O)nc3cc(F)ccc23)c(C(F)(F)F)nn1Cc1ccc(C#N)cc1` [BAY-876] showed an activity at 0.04 µM ([2]; Homo sapiens, A2780, 72 hours, BAY-876 0.04 μM, IMT at the μM of c0, untreated control =100%, read-out: Measured residual activity (cellular ATP content)) of 88%, an activity at 0.123 µM ([2]; Homo sapiens, A2780, 72 hours, BAY-876 0.123 μM, IMT at the μM of c0, untreated control =100%, read-out: Measured residual activity (cellular ATP content)) of 78% and an activity at […] ([2]; Homo sapiens, A2780, 72 hours, BAY-876 0.37 μM, IMT at the μM of c0, untreated control =100%, read-out: Measured residual activity (cellular ATP content)) of 90%. It also gave an activity at 3.33 µM ([2]; Homo sapiens, A2780, 72 hours, BAY-876 3.33 μM, IMT at the μM of c0, untreated control =100%, read-out: Measured residual activity (cellular ATP content)) of 78%, an activity at 10 µM ([2]; Homo sapiens, A2780, 72 hours, BAY-876 10 μM, IMT at the μM of c0, untreated control =100%, read-out: Measured residual activity (cellular ATP content)) of 51% and an activity at 30 µM ([2]; Homo sapiens, A2780, 72 hours, BAY-876 30 μM, IMT at the μM of c0, untreated control =100%, read-out: Measured residual activity (cellular ATP content)) of 10%. For the same compound, the activity at 0.041 µM ([4]; BAY-876 0.041 μM) was 74%, the activity at 0.123 µM ([4]; BAY-876 0.123 μM) was 59% and the activity at […] ([4]; BAY-876 0.370 μM) was 58%. For the same compound, the activity at 1.111 µM ([4]; BAY-876 1.111 μM) was 32%, the activity at […] ([4]; BAY-876 3.3 μM) was 18% and the activity at 10 µM ([4]; BAY-876 10 μM) was 11%. For the same compound, the activity at 30 µM ([4]; BAY-876 30 μM) was 8%, the activity at 0.04 µM ([5]; BAY-876 0.04 μM) was 104% and the activity at […] ([5]; BAY-876 0.12 μM) was 109%. It also gave an activity at […] ([5]; BAY-876 0.37 μM) of 90%, an activity at 3.33 µM ([5]; BAY-876 3.33 μM) of 98% and an activity at 10 µM ([5]; BAY-876 10 μM) of 87%. The activity at 30 µM ([5]; BAY-876 30 μM) was 101%.
